Literature values, collected in publication PMC9065038 (Scientific Reports, 2022).

Tests used:
[1] = design: method as in PMID 28635181; conditions: rats
[2] = in vivo
[3] = in vivo; remark: listed apart in the source
[4] = constipation, respiratory depression
[5] = biological target: NOP receptor (S346, S351, T362/S363) (Homo sapiens, UniProt P41146)
Chain of NOP receptor (S346, S351, T362/S363) (P41146 whole entry): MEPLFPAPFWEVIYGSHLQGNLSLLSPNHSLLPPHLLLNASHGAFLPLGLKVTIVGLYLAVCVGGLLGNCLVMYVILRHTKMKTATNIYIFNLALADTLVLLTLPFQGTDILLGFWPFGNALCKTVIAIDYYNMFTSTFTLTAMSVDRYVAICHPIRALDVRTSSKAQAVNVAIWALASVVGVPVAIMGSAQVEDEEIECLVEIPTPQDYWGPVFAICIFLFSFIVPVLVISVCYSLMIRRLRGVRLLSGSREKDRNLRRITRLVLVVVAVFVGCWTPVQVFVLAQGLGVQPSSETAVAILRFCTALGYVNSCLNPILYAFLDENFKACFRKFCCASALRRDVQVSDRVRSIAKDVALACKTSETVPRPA

With `CCC1C(=O)N(C2CCN(CCC(c3ccccc3)c3ccccc3)CC2)c2ccccc21` (stereo not drawn) [AT-034] as the compound, how does the cocaine self-administration [1] read?
The cocaine self-administration was “significantly reduce cocaine self-administration”.

What does the source list for `CC(C)[C@H]1CC[C@@H](N2CCC3(CC2)C(=O)N(CCNS(N)(=O)=O)Cc2ccccc23)CC1` [AT-121]?
reinforcing effects or physical dependence [2]: devoid of reinforcing effects or physical dependence; tolerance development [2]: significantly lower tolerance development; anti-nociceptive and anti-hyperalgesic effects [3]: potent anti-nociceptive and anti-hyperalgesic effects

With `COc1ccsc1CNCC[C@@]1(c2ccccn2)CCOC2(CCCC2)C1` [TRV130] as the compound, how does the “side-effects in clinical trials” value [4] read?
Its value is “failed to produce therapeutic results devoid of side-effects”.

With buprenorphine as the compound, how does the “NOP phosphorylation profile (in words)” value [5] read?
The value was “none at NOP”.
